# Source: US5112863A, “Antipsychotic drug” (Nippon Oil & Fats Co., Ltd., priority 1989, dated 1992)
# What was measured:
# [1] = background statement; cited from earlier work
# [2] = test system: GABA system; settings: via a GABA system; Japanese Patent Publications; Biochemical Pharmacol., 32, 2751-2755, 1983; cited from earlier work
# [3] = test system: Wistar rats; test: Antipsychotic action test: phencyclidine-induced locomotor activity and stereotypy (method of Sturgen et al.); type: in vivo; settings: for Locomotor activity score / Stereotypy score: 10 min before phencyclidine 10 mg/kg i.p., 30 minutes, grades 0-5; for Dose dependence of locomotor activity and stereotypy score: 30 minutes after pretreatment and dosage of phencyclidine; for Control of locomotor activity and stereotypy score: group dosed 100 mg/kg; for Statistical significance of lowering of locomotor activity and stereotypy score: group dosed more than 50 mg/kg, P<0.01; for Effect on locomotor activity and stereotypy score compared with NMD-Ser and NMD-Ala: phencyclidine-dosed rats, dose not stated
# Protocol: (§1) Method: the action of antipsychotic was estimated by a method of Sturgen et al. (Eur. J. Pharmacol 76, 37-53, 1981). Namely, medicines suspended in 0.1% Tween 80 were dosed in the abdomen of Wistar rats (Weight: 200-250 g, 6 rats/group). After ten minutes, phencyclidine dissolved in physiological saline (10 mg/kg) was dosed intraperitoneally. After ten minutes, locomotor activity and stereotypy score were estimated at intervals of 20 minutes by 6 grades.
# 1. Sometimes, movement within localized area of cage.
# 2. Movement over a small area of cage, intermittent activity emitted at a low-moderate rate.
# 3. Movement over a small area of cage, activity emitted continuously and at a moderate-rapid rate.
# 4. Movement over a large area of cage, activety is intermittent and emitted at a low-moderate rate.
# 5. Movement over a large area of cage, activety is emitted continuously and at a moderate-rapid rate.
# 1. Locomotor activity, sniffing and grooming more frequent than observed for control.
# 2. Higher frequency of sniffing, rearing or turning than in 1.
# 3. Moderate rate and intermittent sniffing, rearing, turning or backpedaling.
# 4. Rapid rate and continuous turning, backpedaling, sniffing.
# 5. Dyokinetic extension and flexion of limbs, head and neck.
# [4] = test system: glycine binding site; test: Intracranial administration with 7-chlorokynurenic acid, phencyclidine-induced locomotor activity and stereotypy; type: in vivo, rats; settings: 200 mg/kg with 7-chlorokynurenic acid (allosteric antagonist of glycine binding site) dosed in the brain
# Protocol: as §1
# Rats were anesthetized with pentobarbital (40 mg/kg, intruperitoneally) and mounted on a stereotaxic frame. For the intracranical administration of 7-chlorokynurenicocid, the guide cannulae were fixed to the skull. Beginning 5-7 days after surgery, bilateral intracranial injections were performed in the non-anesthetized rats with cannulae attached by poly ethylene tubes to two 10 μl Hamilton syringes. The injection site was A.P. -0.8 (anterior to bregma), V. +2.0, L.±1.5 according to the atlas of Paxinos and Watson (1982). The medicine 5 μl was injected in four minutes a minute after inserting the needle. After the injection the injection needle was kept in the brain for five minutes and removed. After ten minutes from the beginning of the injection, phencyclidine was dosed intraperitoneally.
# [5] = dosed in a living body; background statement; cited from earlier work
structure (smiles),measurement,setting,value
CN(C)CCCN1c2ccccc2Sc2ccc(Cl)cc21 [chlorpromazine],Side effect,[1],"unsatisfactorily side effect, for example, myogelosis, mouth dry, sleepiness and constipation"
CCCCCNCC(N)=O [2-n-pentyl amino aceto amide],Anticonvulsant functions for convulsion induced with bicuculline,[2],anticonvulsant functions
"CCCCCCCCCCCCCC(=O)N[C@H](CO)C(=O)O [NMD-Ser, N-myristoyl-D-serine]",Locomotor activity score,[3]; 1 mg/kg i.p.,3.7 ± 0.2
same,Stereotypy score,[3]; 1 mg/kg i.p.,3.2 ± 0.3
same,Locomotor activity score,[3]; 10 mg/kg i.p.,3.3 ± 0.2
same,Stereotypy score,[3]; 10 mg/kg i.p.,3.2 ± 0.3
same,Locomotor activity score,"[3]; 50 mg/kg i.p., P < 0.01",2.0 ± 0.3
same,Stereotypy score,"[3]; 50 mg/kg i.p., P < 0.01",1.7 ± 0.2
same,Locomotor activity score,"[3]; 100 mg/kg i.p., P < 0.01",1.5 ± 0.5
same,Stereotypy score,"[3]; 100 mg/kg i.p., P < 0.01",1.2 ± 0.3
same,Locomotor activity score,"[3]; 200 mg/kg i.p., P < 0.01",1.5 ± 0.3
same,Stereotypy score,"[3]; 200 mg/kg i.p., P < 0.01",1.5 ± 0.2
same,Dose dependence of locomotor activity and stereotypy score,[3],the scores lessen with the decrease of the dose
same,Control of locomotor activity and stereotypy score,[3],nearly controlled
same,Statistical significance of lowering of locomotor activity and stereotypy score,[3],statistical significant difference (P<0.01) is found
same,"Locomotor activity and stereotypy score observed at a dose of N-myristoyl-D-serine alone, when dosed with 7-chlorokynurenic acid",[4],are not observed
CCCCC(=O)NCC(=O)O [2-pentanoyl amino acetic acid],Anticonvulsant functions for convulsion induced with bicuculline,[2],anticonvulsant functions
"CCCCCCCCCCCCCC(=O)N[C@H](C)C(=O)O [NMD-Ala, N-myristoyl-D-alanine]",Locomotor activity score,[3]; 1 mg/kg i.p.,2.8 ± 0.2
same,Stereotypy score,[3]; 1 mg/kg i.p.,3.0 ± 0.4
same,Locomotor activity score,[3]; 10 mg/kg i.p.,2.4 ± 0.4
same,Stereotypy score,[3]; 10 mg/kg i.p.,2.4 ± 0.2
same,Locomotor activity score,"[3]; 50 mg/kg i.p., P < 0.01",2.2 ± 0.4
same,Stereotypy score,"[3]; 50 mg/kg i.p., P < 0.01",2.0 ± 0.3
same,Locomotor activity score,"[3]; 100 mg/kg i.p., P < 0.01",0.7 ± 0.3
same,Stereotypy score,"[3]; 100 mg/kg i.p., P < 0.01",0.8 ± 0.3
same,Locomotor activity score,"[3]; 200 mg/kg i.p., P < 0.01",1.5 ± 0.3
same,Stereotypy score,"[3]; 200 mg/kg i.p., P < 0.01",1.3 ± 0.4
same,Dose dependence of locomotor activity and stereotypy score,[3],the scores lessen with the decrease of the dose
same,Control of locomotor activity and stereotypy score,[3],nearly controlled
same,Statistical significance of lowering of locomotor activity and stereotypy score,[3],statistical significant difference (P<0.01) is found
CCCCCCCC/C=C\CCCCCCCC(=O)N[C@H](CO)C(=O)O [N-oleoyl-D-serine],Effect on locomotor activity and stereotypy score compared with NMD-Ser and NMD-Ala,[3],the same effect is observed
NCC(=O)O [glycine],Passage through blood brain barrier,[5],can not pass through blood brain barrier
CCCCC(=O)N[C@H](CO)C(=O)O [N-pentanoyl-D-serine],Effect on locomotor activity and stereotypy score compared with NMD-Ser and NMD-Ala,[3],the same effect is observed
